Patent US9902712B2, “Nitrogenous heterocyclic derivatives and their application in drugs” (Sunshine Lake Pharma Co., Ltd., priority 2013, dated 2018)

Test system: HFL1 cells
Assay: HFL1 cell proliferation inhibition (CCK-8, optical density at 450 nm)
Type: cell-based
Conditions: for IC50: Homo sapiens, 48 hours after dosing, CCK-8, cell proliferation inhibition; for The ratio with PFD: IC50 ratio of Pirfenidone to the compound, 48 hours
Protocol: Example 69: Cell Experiment Method
HFL1 cells in exponential growth phase were cultured, cells were digested and collected using traditional subculturing when reaching 85-95% fusion and the cells were counted to adjust, the cell density to 5×10^4 cells per milliliter, then the cells were seed into 96-well plates, 100 μl/well and incubated in a 5% CO2 incubator at 37° C.
The supernatant of the 96-well plates was removed at 24 hours after the cells adhering to the wall and solutions containing the above compounds with different concentration were added to the wells, with 100 μl/well (the concentration of each compounds are in the range of 0.003-8 mmol/L) each concentration in 3 replicates, and the cells were cultured 48 hours after dosing.
3. Testing the Optical Density
10 μl of CCK-8 solution was added to each well 48 hours after dosing, and incubated for 2 hours. The optical density (A) of each well was determined using a microplate reader at 450 nm wavelength. The cell proliferation inhibition ratio of each compound were calculated based on A using the formula of: cell proliferation inhibition ratio(inhibition ratio, IR)=(1−value of experimental group (Ai)/value of control group (Ao))×100%, in which IC50 of each compound at 48 hours was calculated by data processing software, wherein the control group was the blank group.

SMILES	IC50 [µM]	The ratio with PFD [multiple]
Cc1cc(=O)n(-c2ccc(N3CCC(OCc4cccc(F)c4)CC3)c(Cl)c2)c(C)n1 [Example 32, 3-(3-chloro-4-(4-((3-fluorobenzyl)oxy)piperidin-1-yl)phenyl)-2,6-dimethylpyrimidin-4(3H)-one]	100	107
Cc1cc(=O)n(-c2ccc(N3CCC(Cc4cccc5cccnc45)CC3)c(Cl)c2)c(C)n1 [Example 22, 3-(3-chloro-4-(4-(quinolin-8-ylmethyl)piperidin-1-yl)phenyl)-2,6-dimethylpyrimidin-4(3H)-one]	90	101
Cc1cc(=O)n(-c2ccc(N3CCC(Cc4cc(F)cc5cccnc45)CC3)c(Cl)c2)c(C)n1 [Example 54, 3-(3-chloro-4-(4-((6-fluoroquinolin-8-yl)methyl)piperidin-1-yl)phenyl)-2,6-dimethylpyrimidin-4(3H)-one]	40	209
Cc1cc(=O)n(-c2ccc(N3CCC(Cc4cccc(C(F)(F)F)c4)CC3)c(Cl)c2)c(C)n1 [Example 14, 3-(3-chloro-4-(4-(3-(trifluoromethyl)benzyl)piperidin-1-yl)phenyl)-2,6-dimethylpyrimidin-4(3H)-one]	60	139
Cc1cc(=O)n(-c2ccc(N3CCC(Cc4cccc(Cl)c4)CC3)c(Cl)c2)c(C)n1 [Example 19, 3-(3-chloro-4-(4-(3-chlorobenzyl)piperidin-1-yl)phenyl)-2,6-dimethylpyrimidin-4(3H)-one]	70	137
Cc1cc(=O)n(-c2ccc(N3CCC(Cc4ccccc4Cl)CC3)c(Cl)c2)c(C)n1 [Example 15, 3-(3-chloro-4-(4-(2-chlorobenzyl)piperidin-1-yl)phenyl)-2,6-dimethylpyrimidin-4(3H)-one]	65	151
COc1cccc(CC2CCN(c3ccc(-n4c(C)nc(C)cc4=O)cc3Cl)CC2)c1 [Example 12, 3-(3-chloro-4-(4-(3-methoxybenzyl)piperidin-1-yl)phenyl)-2,6-dimethylpyrimidin-4(3H)-one]	80	112
Cc1cc(=O)n(-c2ccc(N3CCC(Cc4ccccc4F)CC3)c(Cl)c2)c(C)n1 [Example 6, 3-(3-chloro-4-(4-(2-fluorobenzyl)piperidin-1-yl)phenyl)-2,6-dimethylpyrimidin-4(3H)-one]	70	121
Cc1cc(=O)n(-c2ccc(N3CCC(Cc4ccc(Cl)c(F)c4)CC3)c(Cl)c2)c(C)n1 [Example 16, 3-(3-chloro-4-(4-(4-chloro-3-fluorobenzyl)piperidin-1-yl)phenyl)-2,6-dimethylpyrimidin-4(3H)-one]	70	139
Cc1cc(=O)n(-c2ccc(N3CCC(Cc4cc(F)c(F)c5cccnc45)CC3)c(Cl)c2)c(C)n1 [Example 57, 3-(3-chloro-4-(4-((5,6-difluoroquinolin-8-yl)methyl)piperidin-1-yl)phenyl)-2,6-dimethylpyrimidin-4(3H)-one]	60	168
Cc1cc(=O)n(-c2ccc(N3CCC(Cc4ccc(F)c5ccccc45)CC3)c(Cl)c2)c(C)n1 [Example 58, 3-(3-chloro-4-(4-((4-fluoronaphthalen-1-yl)methyl)piperidin-1-yl)phenyl)-2,6-dimethylpyrimidin-4(3H)-one]	64	357
Cc1cc(=O)n(-c2ccc(N3CCC(Oc4cccc(N)c4)CC3)c(Cl)c2)c(C)n1 [Example 34, 3-(4-(4-(3-aminophenoxy)piperidin-1-yl)-3-chlorophenyl)-2,6-dimethylpyrimidin-4(3H)-one]	90	154
Cc1cc(=O)n(-c2ccc(N3CCC(Cc4cccc5ccccc45)CC3)c(Cl)c2)c(C)n1 [Example 9, 3-(3-chloro-4-(4-(naphthalen-1-ylmethyl)piperidin-1-yl)phenyl)-2,6-dimethylpyrimidin-4(3H)-one]	80	179
Cc1cc(=O)n(-c2ccc(N3CCC(Cc4ccc(C(F)(F)F)c5cccnc45)CC3)c(Cl)c2)c(C)n1 [Example 56, 3-(3-chloro-4-(4-((5-(trifluoromethyl)quinolin-8-yl)methyl)piperidin-1-yl)phenyl)-2,6-dimethylpyrimidin-4(3H)-one]	40	209
Cc1cc(=O)n(-c2ccc(N3CCC(Cc4ccc5ccccc5c4)CC3)c(Cl)c2)c(C)n1 [Example 10, 3-(3-chloro-4-(4-(naphthalen-2-ylmethyl)piperidin-1-yl)phenyl)-2,6-dimethylpyrimidin-4(3H)-one]	78	111
Cc1cc(=O)n(-c2ccc(N3CCC(Oc4ccccc4OC(F)(F)F)CC3)c(Cl)c2)c(C)n1 [Example 35, 3-(3-chloro-4-(4-(2-(trifluoromethoxy)phenoxy)piperidin-1-yl)phenyl)-2,6-dimethylpyrimidin-4(3H)-one]	120	119
Cc1cc(=O)n(-c2ccc(N3CCC(COc4cccc(C(F)(F)F)c4)CC3)c(Cl)c2)c(C)n1 [Example 53, 3-(3-chloro-4-(4-((3-(trifluoromethyl)phenoxy)methyl)piperidin-1-yl)phenyl)-2,6-dimethylpyrimidin-4(3H)-one]	38	602
Cc1cc(=O)n(-c2ccc(N3CCC(Cc4ccccc4-c4ccccc4)CC3)c(Cl)c2)c(C)n1 [Example 13, 3-(4-(4-([1,1′-biphenyl]-2-ylmethyl)piperidin-1-yl)-3-chlorophenyl)-2,6-dimethylpyrimidin-4(3H)-one]	70	118
Cc1cc(=O)n(-c2ccc(N3CCC(COc4cccc(F)c4)CC3)c(Cl)c2)c(C)n1 [Example 30, 3-(3-chloro-4-(4-((3-fluorophenoxy)methyl)piperidin-1-yl)phenyl)-2,6-dimethylpyrimidin-4(3H)-one]	60	136
Cc1cc(=O)n(-c2ccc(N3CCC(Cc4ccc(F)cc4)CC3)c(F)c2)c(C)n1 [Example 25, 3-(3-fluoro-4-(4-(4-fluorobenzyl)piperidin-1-yl)phenyl)-2,6-dimethylpyrimidin-4(3H)-one]	100	107
Cc1ccc(OC2CCN(c3ccc(-n4c(C)nc(C)cc4=O)cc3Cl)CC2)c(Cl)c1 [Example 37, 3-(3-chloro-4-(4-(2-chloro-4-methylphenoxy)piperidin-1-yl)phenyl)-2,6-dimethylpyrimidin-4(3H)-one]	80	181
Cc1cc(=O)n(-c2ccc(N3CCC(Cc4ccc5cc(F)ccc5c4)CC3)c(Cl)c2)c(C)n1 [Example 51, 3-(3-chloro-4-(4-((6-fluoronaphthalen-2-yl)methyl)piperidin-1-yl)phenyl)-2,6-dimethylpyrimidin-4(3H)-one]	37	618
C=CCc1ccccc1OC1CCN(c2ccc(-n3c(C)nc(C)cc3=O)cc2Cl)CC1 [Example 33, 3-(4-(4-(2-allylphenoxy)piperidin-1-yl)-3-chlorophenyl)-2,6-dimethylpyrimidin-4(3H)-one]	70	149
Cc1cc(=O)n(-c2ccc(N3CCC(Cc4cccc5ccccc45)CC3)c(F)c2)c(C)n1 [Example 26, 3-(3-fluoro-4-(4-(naphthalen-1-ylmethyl)piperidin-1-yl)phenyl)-2,6-dimethylpyrimidin-4(3H)-one]	60	137
Cc1cc(=O)n(-c2ccc(N3CCC(Cc4cc(F)c(F)c(F)c4)CC3)c(Cl)c2)c(C)n1 [Example 17, 3-(3-chloro-4-(4-(3,4,5-trifluorobenzyl)piperidin-1-yl)phenyl)-2,6-dimethylpyrimidin-4(3H)-one]	70	137
Cc1cc(=O)n(-c2ccc(N3CCC(Cc4ccc(F)c(F)c4)CC3)c(Cl)c2)c(C)n1 [Example 44, 3-(3-chloro-4-(4-(3,4-difluorobenzyl)piperidin-1-yl)phenyl)-2,6-dimethylpyrimidin-4(3H)-one]	70	139
Cc1cc(=O)n(-c2ccc(N3CCC(Oc4cccc(C#N)c4)CC3)c(Cl)c2)c(C)n1 [Example 29, 3-((1-(2-chloro-4-(2,4-dimethyl-6-oxopyrimidin-1 (6H)-yl)phenyl)piperidin-4-yl)oxy)benzonitrile]	90	107
